Laboratory results taken from US12523664B2, “Sensor chip and methods thereof” (NATIONAL UNIVERSITY OF SINGAPORE, priority 2019, dated 2026).
Entries after “also recorded” stand apart in the source; their conditions may differ.

Biological target: amylogenic protein (Homo sapiens, UniProt P05067)
Assay: Protein aggregation with or without inhibitor, aggregate size by dynamic light scattering
Format: biochemical
Details: 10 μM inhibitor added before 1 h incubation with agitation
Protocol: Aggregate size determination. Hydrodynamic diameter of amylogenic protein and BSA aggregates were determined by dynamic light scattering analysis (Zetasizer Nano ZSP, Malvern). 3×14 measurement runs were performed at 4° C. Z-average diameter and polydispersity were analyzed. For every measurement, the auto-correlation function and polydispersity index were monitored to ensure sample quality for size determination.
Protein aggregation. Lyophilized amylogenic protein was resuspended in NaOH (60 mM, 4° C.), sonicated, and pH adjusted to pH 7.4 in PBS. The protein was immediately filtered through a 0.2-μm membrane filter (Millipore) and the filtrate was used as the small initial aggregates. For preparation of the bigger aggregates, the protein was treated as described above and incubated with agitation for 1 h to induce further aggregation. […] Aggregate size determination was performed at the end of the incubation.

Sequence of amylogenic protein (P05067 672-713 limits assumed): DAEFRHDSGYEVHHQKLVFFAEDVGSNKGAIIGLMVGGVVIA

CN(C)c1ccc2nc3ccc(=[N+](C)C)cc-3sc2c1 [inhibitor, methylene blue]
increase in size as a result of spontaneous protein aggregation: reduced spontaneous protein aggregation; also recorded: minimal
